Measurements as given in patent US10227315B2, “Mitochondrial uncouplers for treatment of metabolic diseases and cancer” (RUTGERS, THE STATE UNIVERSITY OF NEW JERSEY, priority 2016, dated 2019).

How the values were obtained:
[1] = system: mouse myoblast C2C12 cells; assay: Oxygen consumption rate (OCR) assay with Seahorse XF96 or XF24, mitochondrial uncoupling; format: cell-based; settings: 10% fetal bovine serum, in the presence of oligomycin 2.5 μM, read-out: Cmin (minimal concentration to induce ATP synthase-independent OCR increase)
From the text: By definition, mitochondrial uncoupling is the decoupling of mitochondrial electron transport chain activity (mitochondrial oxidation) from ATP synthesis by mitochondrial ATP synthase. Technically, mitochondrial uncoupling activity is defined by the ability of a chemical compound to induce oxygen consumption of cells or isolated mitochondria in the presence of a mitochondrial ATP synthase inhibitor such as oligomycin. Accordingly, we determined mitochondrial uncoupling activity by oxygen consumption rate (OCR) assay with a Seahorse XF96 or a Seahorse XF24 instrument following the vendor's instruction, using mouse myoblast C2C12 cells growing in medium containing 10% fetal bovine serum. […] The minimal concentration (Cmin) of each compound under which OCR is induced in the presence of oligomycin, was determined.

[2] = system: NIH-3T3 cells, or HepG2 cells; assay: Mitochondrial membrane potential assay, TMRE staining; format: cell-based; settings: 2 h; two hours treatment, TMRE 100 nM; read-out: EC50, mitochondrial membrane potential reduction (TMRE staining reduced to about 50%)
Protocol: Mitochondrial uncoupling may also lead to a reduction of mitochondrial membrane potential. We performed mitochondrial membrane potential assay using TMRE (tetramethylrhodamine ethyl ester) staining method with cultured mammalian cells, the NIH-3T3 cells, or HepG2 cells. Cells were seeded onto 6-well plates and cultured in DMEM medium supplemented with 10% fetal bovine serum and 2 mM glutamine. Cells were allowed to grow to logarithmic growth phase prior to experiments. The cells were treated with each individual compound at various concentrations for two hours, followed by staining with TMRE at final concentration of 100 nM for 15 minutes. The cells were then washed once with PBS, and examined under fluorescence microscopy. Cells treated with various concentrations of niclosamide ethanolamine were used as positive control. Reduction of mitochondrial TMRE staining was estimated as a quantification of mitochondrial uncoupling activity. […] The following table (Table II) summarizes the activity of individual compounds in reducing mitochondrial membrane potential in cultured mammalian cells.

| SMILES | minimal effective concentration [1] | EC50 [2] |
| --- | --- | --- |
| CN(C)CCc1cc(Cl)cc(C(=O)Nc2nc3ccc(C(F)(F)F)cc3s2)c1O [Compound 2, 5-Chloro-3-(2-(dimethylamino)ethyl)-2-hydroxy-N-(6-(trifluoromethyl)benzo[d]thiazol-2-yl)benzamide] | < 10 µM |  |
| CS(=O)(=O)NCCc1cc(Cl)cc(C(=O)Nc2nc3ccc(C(F)(F)F)cc3s2)c1O [Compound 3, 5-Chloro-2-hydroxy-3-(2-(methylsulfonamido)ethyl)-N-(6-(trifluoromethyl)benzo[d]thiazol-2-yl)benzamide] | < 10 µM |  |
| O=C(Nc1nc2ccc(C(F)(F)F)cc2s1)c1cc(Cl)cc2nc(C(F)(F)F)[nH]c12 [Compound 8, 5-Chloro-2-(trifluoromethyl)-N-(6-(trifluoromethyl)benzo[d]thiazol-2-yl)-1H-benzo[d]imidazole-7-carboxamide] | 10 to 25 µM | 10 to 25 µM |
| Oc1cc(Nc2nc3ccc(C(F)(F)F)cc3s2)c(C(F)(F)F)cc1C(F)(F)F [Compound 9, 2,4-Bis(trifluoromethyl)-5-((6-(trifluoromethyl)benzo[d]thiazol-2-yl)amino)phenol] | > 25 µM | > 25 µM |
| O=C(Nc1ccc([N+](=O)[O-])cc1Cl)c1cc(Cl)ccc1OC(=O)N1CCOCC1 [Compound 13, 4-Chloro-2-((2-chloro-4-nitrophenyl)carbamoyl)phenyl morpholine-4-carboxylate] | < 10 µM | < 10 µM |
| O=C(Nc1ccc(C(F)(F)F)cc1Cl)c1cc(Cl)ccc1O [Compound 14, 5-Chloro-N-(2-chloro-4-(trifluoromethyl)phenyl)-2-hydroxybenzamide] | < 10 µM | < 10 µM |
| O=C(Nc1ccc(F)cc1Cl)c1cc(Cl)ccc1O [Compound 15, 5-Chloro-N-(2-chloro-4-fluorophenyl)-2-hydroxybenzamide] | < 10 µM | < 10 µM |
| N#Cc1ccc(NC(=O)c2cc(Cl)ccc2O)c(Cl)c1 [Compound 16, 5-Chloro-N-(2-chloro-4-cyanophenyl)-2-hydroxybenzamide] | < 10 µM | < 10 µM |
| O=C(Nc1nc2c(F)cc(C(F)(F)F)cc2s1)c1cc(Cl)ccc1O [Compound 21, 5-Chloro-N-(4-fluoro-6-(trifluoromethyl)benzo[d]thiazol-2-yl)-2-hydroxybenzamide] | < 10 µM | < 10 µM |
| O=C(Nc1nc2c(C(F)(F)F)cc(C(F)(F)F)cc2s1)c1cc(Cl)ccc1O [Compound 22, N-(4,6-Bis(trifluoromethyl)benzo[d]thiazol-2-yl)-5-chloro-2-hydroxybenzamide] | < 10 µM | < 10 µM |
| O=C(Nc1nc2cc(C(F)(F)F)ccc2s1)c1cc(Cl)ccc1O [Compound 25, 5-Chloro-2-hydroxy-N-(5-(trifluoromethyl)benzo[d]thiazol-2-yl)benzamide] | > 25 µM | > 25 µM |
| O=C(Nc1nc2cccc(C(F)(F)F)c2s1)c1cc(Cl)ccc1O [Compound 26, 5-Chloro-2-hydroxy-N-(7-(trifluoromethyl)benzo[d]thiazol-2-yl)benzamide] | > 25 µM | > 25 µM |
| O=C(Nc1nc2c(C(F)(F)F)cccc2s1)c1cc(Cl)ccc1O [Compound 32, 5-Chloro-2-hydroxy-N-(4-(trifluoromethyl)benzo[d]thiazol-2-yl)benzamide ethanolamine] | < 10 µM | < 10 µM |
| O=C(Nc1nc2ccc(C(F)(F)F)cc2s1)c1cc(Cl)ccc1O [Compound 33, 5-Chloro-2-hydroxy-N-(6-(trifluoromethyl)benzo[d]thiazol-2-yl)benzamide ethanolamine] | < 10 µM | < 10 µM |
| Cc1cc(Cl)cc(C(=O)Nc2nc3c(C(F)(F)F)cccc3s2)c1O [Compound 34, 5-Chloro-2-hydroxy-3-methyl-N-(4-(trifluoromethyl)benzo[d]thiazol-2-yl)benzamide ethanolamine] |  | < 10 µM |
| O=C(Nc1nc2c(F)cc(F)cc2s1)c1cc(Cl)ccc1O [Compound 35, 5-Chloro-N-(4,6-difluorobenzo[d]thiazol-2-yl)-2-hydroxybenzamide ethanolamine] |  | < 10 µM |
| O=C(Nc1nc2ccc(C(F)(F)F)cc2s1)c1cc(Cl)cc(C2CC2)c1O [Compound 36, 5-Chloro-3-cyclopropyl-2-hydroxy-N-(6-(trifluoromethyl)benzo[d]thiazol-2-yl)benzamide] | < 10 µM | < 10 µM |
| Cc1cc(Cl)cc(C(=O)Nc2nc3ccc(C(F)(F)F)cc3s2)c1O [Compound 37, 5-Chloro-2-hydroxy-3-methyl-N-(6-(trifluoromethyl)benzo[d]thiazol-2-yl)benzamide compound with (2R,3R,4R,5S)-6-(methylamino)hexane-1,2,3,4,5-pentaol (1:1)] |  | < 10 µM |
| Cc1cc(Cl)cc(C(=O)Nc2nc3cc(C(F)(F)F)ccc3s2)c1O [Compound 41, 5-Chloro-2-hydroxy-3-methyl-N-(5-(trifluoromethyl)benzo[d]thiazol-2-yl)benzamide] | < 10 µM | < 10 µM |
| Cc1cc(Cl)cc(C(=O)Nc2nc3cccc(C(F)(F)F)c3s2)c1O [Compound 42, 5-Chloro-2-hydroxy-3-methyl-N-(7-(trifluoromethyl)benzo[d]thiazol-2-yl)benzamide] | > 25 µM | > 25 µM |
| O=C(Nc1nc2ccc(C(F)(F)F)cc2s1)c1cc(Cl)cc(CO)c1O [Compound 49, 5-Chloro-2-hydroxy-3-(hydroxymethyl)-N-(6-(trifluoromethyl)benzo[d]thiazol-2-yl)benzamide] | > 25 µM | > 25 µM |
| CN(C)CCCc1cc(Cl)cc(C(=O)Nc2nc3ccc(C(F)(F)F)cc3s2)c1O [Compound 52, 5-Chloro-3-(3-(dimethylamino)propyl)-2-hydroxy-N-(6-(trifluoromethyl)benzo[d]thiazol-2-yl)benzamide] | < 10 µM |  |
| CN(C)Cc1cc(Cl)cc(C(=O)Nc2nc3ccc(C(F)(F)F)cc3s2)c1O [Compound 53, 5-Chloro-3-((dimethylamino)methyl)-2-hydroxy-N-(6-(trifluoromethyl)benzo[d]thiazol-2-yl)benzamide] | < 10 µM |  |
| CN(C)Cc1cc(Cl)cc(C(=O)Nc2nc3ccc(OC(F)(F)F)cc3s2)c1O [Compound 54, 5-Chloro-3-((dimethylamino)methyl)-2-hydroxy-N-(6-(trifluoromethoxy)benzo[d]thiazol-2-yl)benzamide] | < 10 µM |  |
| Cc1nc2cc(Cl)cc(C(=O)Nc3nc4ccc(C(F)(F)F)cc4s3)c2[nH]1 [Compound 56, 5-Chloro-2-methyl-N-(6-(trifluoromethyl)benzo[d]thiazol-2-yl)-1H-benzo[d]imidazole-7-carboxamide] | < 10 µM |  |
| CCc1nc2cc(Cl)cc(C(=O)Nc3nc4ccc(C(F)(F)F)cc4s3)c2[nH]1 [Compound 57, 5-Chloro-2-ethyl-N-(6-(trifluoromethyl)benzo[d]thiazol-2-yl)-1H-benzo[d]imidazole-7-carboxamide] | > 25 µM |  |
| O=C(Nc1nc2c(F)cc(F)cc2s1)c1cc(Cl)cc2nn[nH]c12 [Compound 59, 5-Chloro-N-(4,6-difluorobenzo[d]thiazol-2-yl)-1H-benzo[d][1,2,3]triazole-7-carboxamide] | > 25 µM |  |
